Measurements: US10226509B2, “Lymphangiogenesis inhibitors for cancer and for graft survival” (TUFTS UNIVERSITY, priority 2014, dated 2019)

How the values were obtained:
mouse corneas = assay: Corneal mouse micropocket lymphangiogenesis assay; assay type: in vivo; settings: for mean lymphatic vessel areas: 160 ng pellet, seven days
Procedure: The corneal micropocket lymphangiogenesis assay was performed using implants containing a test agent, hydron (polyhydroxylmethylmethacrylate), and sucralfate (Cao, R., et al. 2011. Nat Protoc 6:817-826; Rogers, M. S., et al. 2007. Nat Protoc 2:2545-2550). Test agents included full-length Gal-8 (40-320 ng/pellet) and VEGF-C (160 ng/pellet). Implants containing hydron and sucralfate alone served as negative controls. The mice were anesthetized by intraperitoneal injection of a mixture of ketamine (90-120 mg/kg) and xylazine (10 mg/kg). The eyes were topically anesthetized with proparacaine and were gently proptosed (forwardly displaced) with forceps. Using a corneal blade and a stereoscope, intrastromal linear keratotomy was performed about 2 mm from the limbus. Using a von Graefe knife (Miltex), a pocket was extended towards the limbus, and the pellet was maneuvered into the pocket. The wound was coated with a veterinary ophthalmic ointment (Akorn) to prevent infection. Mouse corneas were harvested 7 days after pellet implantation, fixed in 4% paraformaldehyde/PBS (1 hour at 4° C.), washed with PBS, and fixed again in iced acetone (15 min at −20° C.). To quantitate the extent of lymphangiogenesis in Prox-1-EGFP reporter mice, flat mounts of the dissected corneas were evaluated by fluorescence microscopy. Fluorescent images were acquired by EVOS FL cell imaging system (Invitrogen), and vessel areas were calculated using the formula (Rogers, M. S., et al. 2007. Nat Protoc 2:2545-2550): vessel area=pellet distance×vessel length×clock hours×[…]. To quantitate the extent of lymphangiogenesis in WT and PDPN-deficient mice, corneas were stained with eFluor 570-anti-mouse LYVE-1 (clone ALY7, eBioScience, and 1:75) in 10% goat serum/0.2% Triton X-100/PBS overnight, 4° C. After several washes with 0.2% Triton X-100/PBS, the corneas were flattened and mounted with VECTASHIELD mounting medium (Vector Laboratories) and evaluated by fluorescence microscopy. In some examples, for comparisons, corneas were stained with Alexa Fluor® 488-anti-mouse CD31 (clone MEC13.3, 1:100, BioLegend) to visualize blood vessels.

ERK1/2 = assay: Western blot of ERK activation in primary LECs; assay type: cell-based, human; settings: 0.5 μM for 0 to 60 minutes or 0 to 0.5 μM for 30 minutes
Procedure: Primary LECs were lysed with Triton lysis buffer supplemented with protease inhibitor cocktail and Phos-STOP phosphatase inhibitor cocktail (Roche), and subjected to electrophoresis in 4-15% SDS-PAGE gels (Bio-Rad). Protein blots of the gels were blocked with 0.5×Odyssey® blocking buffer (OBB, Li-COR). For AKT and ERK signaling, blots were incubated with primary antibodies (rabbit anti-ERK1/2, 1:7500, Cell Signaling Technology; mouse anti-phospho-ERK1/2, Thr202/Tyr204, 1:2000, Cell Signaling Technology; mouse anti-AKT1/2/3, 1:2000, Cell Signaling Technology; rabbit anti-phospho-AKT, Ser473, 1:1500, Cell Signaling Technology) overnight at 4° C. Blots were washed with 0.5% Tween-20/PBS three times, and were incubated with appropriate secondary antibodies (donkey anti-rabbit IRDye 680LT and anti-mouse IRDye 800CW, Li-Cor) for 45 min at 25° C. The blots were scanned by an Odyssey® Infrared Imaging System using Image Studio v2.0 software (Li-COR). […] Signals were detected by Odyssey® Infrared Imaging System. […]

VEGF-C = target: T1, VEGF-C (Homo sapiens, UniProt P49767); assay: Affinity precipitation assay, VEGF-C; assay type: binding; settings: galectin-conjugated agarose beads
T1 construct: Primary LECs were incubated with agarose beads (control), and galectin-conjugated agarose beads at 4° C. overnight; endogenous in cells; host or cells: primary lymphatic endothelial cells (LECs)
T1 sequence (P49767 112-227): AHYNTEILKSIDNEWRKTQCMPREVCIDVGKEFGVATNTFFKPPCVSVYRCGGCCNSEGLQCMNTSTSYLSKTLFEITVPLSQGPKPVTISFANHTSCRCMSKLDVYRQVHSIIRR

VEGFR-3 = assay: Cell surface expression of VEGFR-3 by flow cytometry; assay type: cell-based, human; settings: Gal-8 0.2 μM or VEGF-C 50 ng/ml
Procedure: Primary LECs were serum-starved overnight in basal EBM-2 medium. The cells were incubated with or without VEGF-C (50 ng/ml, PeproTech) or Gal-8 (0.2 μM) in serum-free EBM-2 medium for 10 and 30 min. At the end of the incubation period, cells were lifted with StemPro® Accutase® cell dissociation reagent (Invitrogen), washed with PBS and fixed with 4% paraformaldehyde/PBS on ice for 10 min, and were then stained using rat anti-human PDPN (1:500, BioLegend) and mouse anti-human VEGFR-3 (clone 9D9F9) (1:100, BioLegend) primary antibodies in cell staining buffer (BioLegend, 45 min on ice) and Alexa Fluor® 488 donkey anti-rat and Alexa Fluor® 647 anti-mouse secondary antibodies (1:1000, Invitrogen, 30 min on ice). For negative control, the primary antibodies were omitted. The stained cells were fixed with 2% paraformaldehyde/PBS, analyzed with BD FACSCalibur, and the mean fluorescence intensity of VEGFR-3 and PDPN were quantified with the FlowJo software (version 9.5.2).

binding to VEGF-C (in words) (VEGF-C): does not interact with VEGF-C
Substance: Gal-8: recombinant galectin-8, tandem-repeat type galectin with two different CRDs
mean lymphatic vessel areas (mouse corneas; PDPN KO mice): 0.28 mm^2
mean lymphatic vessel areas (mouse corneas; WT mice): 0.78 mm^2
lymphatic vessel growth, times higher than either VEGF-C pellet or Gal-8 pellet alone (mouse corneas; corneas implanted with both VEGF-C and Gal-8 pellets): 2.2 times
lymphangiogenesis induced by pellet in cornea (in words) (mouse corneas; one week after implantation, Gal-8 40-320 ng/pellet, VEGF-C 160 ng, WT or Prox1-EGFP mice): increased in a dose-dependent manner
effect of Gal-8 pellet on VEGF-C-induced lymphangiogenesis in vivo (in words) (mouse corneas; two separate pellets (VEGF-C and Gal-8), Prox1-EGFP reporter mice, one week): augmented VEGF-C-induced lymphangiogenesis
phosphorylation of ERK1/2 (in words) (ERK1/2): induced phosphorylation of AKT and ERK1/2 in time- and dose-dependent manner
decrease of cell surface expression of VEGFR-3 (VEGFR-3): about 10%
